The record followed here is patent publication US8754073B2, “Substituted piperazino-dihydrothienopyrimidines” (Boehringer Ingelheim International GmbH, priority 2007, dated 2014).

The structures appear in SMILES notation.

Chain of PDE4B (Q07343 whole entry, species assumed): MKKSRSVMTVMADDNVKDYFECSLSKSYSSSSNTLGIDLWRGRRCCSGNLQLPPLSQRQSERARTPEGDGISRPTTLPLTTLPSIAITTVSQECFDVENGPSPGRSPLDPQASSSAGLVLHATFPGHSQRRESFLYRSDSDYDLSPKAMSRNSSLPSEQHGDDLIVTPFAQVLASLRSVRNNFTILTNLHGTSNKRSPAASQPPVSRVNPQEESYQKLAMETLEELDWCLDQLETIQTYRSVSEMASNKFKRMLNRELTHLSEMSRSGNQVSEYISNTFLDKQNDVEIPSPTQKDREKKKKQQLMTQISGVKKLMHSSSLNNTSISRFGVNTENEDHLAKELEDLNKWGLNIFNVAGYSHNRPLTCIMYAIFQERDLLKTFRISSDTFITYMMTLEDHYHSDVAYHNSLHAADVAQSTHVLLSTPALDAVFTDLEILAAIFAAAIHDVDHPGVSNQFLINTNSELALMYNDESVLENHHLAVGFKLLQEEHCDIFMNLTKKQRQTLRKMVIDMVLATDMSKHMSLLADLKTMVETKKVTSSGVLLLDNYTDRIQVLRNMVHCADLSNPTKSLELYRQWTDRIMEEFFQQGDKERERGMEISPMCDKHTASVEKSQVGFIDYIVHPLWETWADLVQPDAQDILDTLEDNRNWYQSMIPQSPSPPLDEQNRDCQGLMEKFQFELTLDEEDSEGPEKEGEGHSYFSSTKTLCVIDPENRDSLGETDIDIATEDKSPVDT

The target in this assay is PDE4B (Homo sapiens, UniProt Q07343). Nature of the assay: Scintillation Proximity Assay (SPA) of PDE4B enzyme activity ([H3]-cAMP cleavage). In kind it is biochemical. The following applies: test substance 1 μM; one-hour incubation with [H3]-cAMP at 30° C. A digest of the protocol:
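SPA read-out: [H3]-cAMP incubated with PDE4B in assay buffer for 1 h at 30 °C, with and without test compound at 1 μM. Reaction stopped by adding yttrium silicate beads that bind the [H3]-AMP product; after 45 min settling, scintillation counted. Value is % inhibition at 1 μM.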
For orientation: Scintillation proximity formats need no separation of bound from free tracer.
With `[O-][S+]1CCc2nc(N3CCC(Oc4ccc(Cl)cc4)CC3)nc(NC3CCOCC3)c21` (stereo not shown) [Example 271], 1 µM produced 92% inhibition.
As for `CC(C)c1ccccc1OC1CCN(c2nc3c(c(NC4CCOCC4)n2)[S+]([O-])CC3)CC1` (stereo not shown) [Example 272], testing at 1 µM gave an inhibition of 95%.
For `COC1(c2cc(F)cc(F)c2)CCN(c2nc3c(c(N[C@H]4CCC(=O)N(C)C4)n2)[S+]([O-])CC3)CC1` (stereo partly shown) [Example 273, 5-{2-[4-(3,5-difluorophenyl)-4-methoxypiperidin-1-yl]-5-oxo-6,7-dihydro-5H-5λ^4-thieno[3,2-d]pyrimidin-4-ylamino}-1-methylpiperidin-2-one] the value was 94%; for `CC(=O)N(C)CC1(c2ccccc2)CCN(c2nc3c(c(N[C@H]4CCC(=O)N(C)C4)n2)[S+]([O-])CC3)CC1` (stereo partly shown) [Example 274, N-methyl-N-{1-[4-(1-methyl-6-oxo-piperidin-3-ylamino)-5-oxo-6,7-dihydro-5H-5λ^4-thieno[3,2-d]pyrimidin-2-yl]-4-phenylpiperidin-4-ylmethyl}-acetamide], 94%; for `Cc1oc(C2CCN(c3nc4c(c(N[C@H]5CCC(=O)N(C)C5)n3)[S+]([O-])CC4)CC2)nc1-c1ccccc1` (stereo partly shown) [Example 275, 1-methyl-5-{2-[4-(5-methyl-4-phenyloxazol-2-yl)-piperidin-1-yl]-5-oxo-6,7-dihydro-5H-5λ^4-thieno[3,2-d]pyrimidin-4-ylamino}-piperidin-2-one], 95%.
Take `Cc1oc(C2CCN(c3nc4c(c(NC5CCOCC5)n3)[S+]([O-])CC4)CC2)nc1-c1ccccc1` (stereo not shown) [Example 276]: the inhibition (as a rule, the drop in the measured response relative to a control, in per cent) at 1 µM came to 95%.
For `Cc1oc(C2CCN(c3nc4c(c(NC5(CO)CC5)n3)[S+]([O-])CC4)CC2)nc1-c1ccccc1` (stereo not shown) [Example 277] the value was 96%.
Regarding `CN1C[C@@H](Nc2nc(N3CCC(c4nc(-c5ccccc5)c(-c5ccccc5)o4)CC3)nc3c2[S+]([O-])CC3)CCC1=O` (stereo partly shown) [Example 278, 5-{2-[4-(4,5-diphenyloxazol-2-yl)-piperidin-1-yl]-5-oxo-6,7-dihydro-5H-5λ^4-thieno[3,2-d]pyrimidin-4-ylamino}-1-methylpiperidin-2-one], the inhibition at 1 µM was found to be 95%.
The same measure for `[O-][S+]1CCc2nc(N3CCC(c4nc(-c5ccccc5)c(-c5ccccc5)o4)CC3)nc(NC3CCOCC3)c21` (stereo not shown) [Example 279]: 95%.
`[O-][S+]1CCc2nc(N3CCC(c4nc(-c5ccccc5)c(-c5ccccc5)o4)CC3)nc(NC3(CO)CC3)c21` (stereo not shown) [Example 280] yielded an inhibition at 1 µM of 95%.
Take `[O-][S+]1CCc2nc(N3CCC(CO)(c4ccc(Cl)cc4)CC3)nc(NC3CCOCC3)c21` (stereo not shown) [Example 281]: the inhibition at 1 µM came to 87%.
Take `Cc1nc(C2CCN(c3nc4c(c(NC5CCOCC5)n3)[S+]([O-])CC4)CC2)oc1-c1ccc(Cl)cc1` (stereo not shown) [Example 282]: testing at 1 µM gave an inhibition of 87%.
With `Cc1nc(C2CCN(c3nc4c(c(NC5(CO)CC5)n3)[S+]([O-])CC4)CC2)oc1-c1ccc(Cl)cc1` (stereo not shown) [Example 283, [1-(2-{4-[5-(4-chlorophenyl)-4-methyloxazol-2-yl]-piperidin-1-yl}-5-oxo-6,7-dihydro-5H-5λ^4-thieno[3,2-d]pyrimidin-4-ylamino)-cyclopropyl]-methanol], testing at 1 µM gave an inhibition of 89%.
For `[O-][S+]1CCc2nc(N3CCC(c4cc(-c5cccs5)[nH]n4)CC3)nc(NC3CCOCC3)c21` (stereo not shown) [Example 284] the value was 83%; for `[O-][S+]1CCc2nc(N3CCC(c4cc(-c5cccs5)[nH]n4)CC3)nc(NC3(CO)CC3)c21` (stereo not shown) [Example 285], 90%; for `CN1C[C@@H](Nc2nc(N3CCC(c4cc(-c5cccs5)[nH]n4)CC3)nc3c2[S+]([O-])CC3)CCC1=O` (stereo partly shown) [Example 286], 89%.
The same measure for `[O-][S+]1CCc2nc(N3CCC(c4cc(-c5cccs5)[nH]n4)CC3)nc(Nc3cccc(F)c3)c21` (stereo not shown) [Example 287]: 89%.
Turning to `[O-][S+]1CCc2nc(N3CCC(O)(c4ccc(Cl)cc4)CC3)nc(NC3CCOCC3)c21` (stereo not shown) [Example 288], the inhibition at 1 µM was 89%.
The same measure for `[O-][S+]1CCc2nc(N3CCC(O)(c4ccc(Cl)cc4)CC3)nc(NC3(CO)CC3)c21` (stereo not shown) [Example 289]: 81%.
For the molecule `[O-][S+]1CCc2nc(N3CCC(O)(c4ccc(Cl)cc4)CC3)nc(Nc3cccc(F)c3)c21` (stereo not shown) [Example 290], the inhibition at 1 µM was 86%.
With `[O-][S+]1CCc2nc(N3CCC(CO)(c4ccc(Cl)cc4)CC3)nc(Nc3cccc(F)c3)c21` (stereo not shown) [Example 291], at 1 µM the inhibition was 89%.
Turning to `CC(C)[C@H](CO)Nc1nc(N2CCC(c3cc(-c4cccs4)[nH]n3)CC2)nc2c1[S+]([O-])CC2` (stereo partly shown) [Example 292], at 1 µM the inhibition was 83%.
Consider `N#CC1(c2ccc(F)cc2)CCN(c2nc3c(c(NC4CCOCC4)n2)[S+]([O-])CC3)CC1` (stereo not shown) [Example 293], for which at 1 µM the inhibition was 86%.
The molecule `CN1C[C@@H](Nc2nc(N3CCC(C#N)(c4ccc(F)cc4)CC3)nc3c2[S+]([O-])CC3)CCC1=O` (stereo partly shown) [Example 294] returned an inhibition at 1 µM of 88%.
`N#CC1(c2ccc(F)cc2)CCN(c2nc3c(c(NC4(CO)CC4)n2)[S+]([O-])CC3)CC1` (stereo not shown) [Example 295] showed an inhibition at 1 µM of 93%.
Consider `CC(C)[C@H](CO)Nc1nc(N2CCC(O)(c3ccc(Cl)cc3)CC2)nc2c1[S+]([O-])CC2` (stereo partly shown) [Example 296], for which 1 µM produced 81% inhibition.
As to `O=C(c1ccc(F)cc1)C1(c2ccc(F)cc2)CCN(c2nc3c(c(NC4CCOCC4)n2)[S+]([O-])CC3)CC1` (stereo not shown) [Example 297], 1 µM produced 73% inhibition.
Take `CC(C)[C@H](CO)Nc1nc(N2CCC(C(=O)c3ccc(F)cc3)(c3ccc(F)cc3)CC2)nc2c1[S+]([O-])CC2` (stereo partly shown) [Example 298]: the inhibition at 1 µM was determined as 91%.
Regarding `O=C(c1ccc(F)cc1)C1(c2ccc(F)cc2)CCN(c2nc3c(c(Nc4cccc(F)c4)n2)[S+]([O-])CC3)CC1` (stereo not shown) [Example 299], at 1 µM the inhibition was 90%.
On to `CC(C)[C@H](CO)Nc1nc(N2CCC(CO)(c3ccc(Cl)cc3)CC2)nc2c1[S+]([O-])CC2` (stereo partly shown) [Example 300], for which testing at 1 µM gave an inhibition of 86%.
In turn, `[O-][S+]1CCc2nc(N3CCC(CO)(c4ccc(Cl)cc4)CC3)nc(NC3(CO)CC3)c21` (stereo not shown) [Example 301] gave an inhibition at 1 µM of 92%.
The same measure for `COCC1(c2ccc(Cl)cc2)CCN(c2nc3c(c(NC4CCOCC4)n2)[S+]([O-])CC3)CC1` (stereo not shown) [Example 302]: 91%.
In the case of `COCC1(c2ccc(Cl)cc2)CCN(c2nc3c(c(NC4(CO)CC4)n2)[S+]([O-])CC3)CC1` (stereo not shown) [Example 303], the inhibition at 1 µM amounted to 89%.
For `COCC1(c2ccc(Cl)cc2)CCN(c2nc3c(c(N[C@@H](CO)C(C)C)n2)[S+]([O-])CC3)CC1` (stereo partly shown) [Example 304] the value was 89%; for `COCC1(c2ccc(Cl)cc2)CCN(c2nc3c(c(Nc4cccc(F)c4)n2)[S+]([O-])CC3)CC1` (stereo not shown) [Example 305], 91%; for `[O-][S+]1CCc2nc(N3CCC(COCc4ccccc4)(c4ccc(Cl)cc4)CC3)nc(Nc3cccc(F)c3)c21` (stereo not shown) [Example 306, {2-[4-benzyloxymethyl-4-(4-chlorophenyl)-piperidin-1-yl]-5-oxo-6,7-dihydro-5H-5λ^4-thieno[3,2-d]pyrimidin-4-yl}-(3-fluorophenyl)-amine], 89%.
`CC(C)[C@H](CO)Nc1nc(N2CCC(COCc3ccccc3)(c3ccc(Cl)cc3)CC2)nc2c1[S+]([O-])CC2` (stereo partly shown) [Example 307] returned an inhibition at 1 µM of 89%.
The molecule `O=C(c1ccc(F)cc1)C1(c2ccc(F)cc2)CCN(c2nc3c(c(NC4(CO)CC4)n2)[S+]([O-])CC3)CC1` (stereo not shown) [Example 308] displayed an inhibition at 1 µM of 89%.
As to `[O-][S+]1CCc2nc(N3CCC(COCc4ccccc4)(c4ccc(Cl)cc4)CC3)nc(NC3(CO)CC3)c21` (stereo not shown) [Example 309], the inhibition at 1 µM turned out to be 92%.
In turn, `[O-][S+]1CCc2nc(N3CCC(COCc4ccccc4)(c4ccc(Cl)cc4)CC3)nc(NC3CCOCC3)c21` (stereo not shown) [Example 310] gave an inhibition at 1 µM of 92%.
For the molecule `[O-][S+]1CCc2nc(N3CCC(c4nc(-c5ccccc5)no4)CC3)nc(NC3(CO)CC3)c21` (stereo not shown) [Example 311], the inhibition at 1 µM came to 91%.
As to `[O-][S+]1CCc2nc(N3CCC(c4nc(-c5ccccc5)no4)CC3)nc(NC3CCOCC3)c21` (stereo not shown) [Example 312], testing at 1 µM gave an inhibition of 92%.
The same measure for `COC1(c2ccc(Cl)cc2)CCN(c2nc3c(c(NC4CCOCC4)n2)[S+]([O-])CC3)CC1` (stereo not shown) [Example 313]: 89%.
In turn, `COC1(c2ccc(Cl)cc2)CCN(c2nc3c(c(NC4(CO)CC4)n2)[S+]([O-])CC3)CC1` (stereo not shown) [Example 314] returned an inhibition at 1 µM of 88%.
The molecule `COC1(c2ccc(Cl)cc2)CCN(c2nc3c(c(N[C@@H](CO)C(C)C)n2)[S+]([O-])CC3)CC1` (stereo partly shown) [Example 315] registered an inhibition at 1 µM of 89%.
For `COC1(c2ccc(Cl)cc2)CCN(c2nc3c(c(Nc4cccc(F)c4)n2)[S+]([O-])CC3)CC1` (stereo not shown) [Example 316] the value was 92%; for `[O-][S+]1CCc2nc(N3CCC(c4nnc(-c5ccccc5)o4)CC3)nc(NC3CCOCC3)c21` (stereo not shown) [Example 317], 95%; for `[O-][S+]1CCc2nc(N3CCC(c4nnc(-c5ccccc5)o4)CC3)nc(NC3(CO)CC3)c21` (stereo not shown) [Example 318], 91%.
For the molecule `[O-][S+]1CCc2nc(N3CCC(OCc4ccccc4)(c4ccc(Cl)cc4)CC3)nc(NC3CCOCC3)c21` (stereo not shown) [Example 319], the inhibition at 1 µM was 91%.
Consider `[O-][S+]1CCc2nc(N3CCC(OCc4ccccc4)(c4ccc(Cl)cc4)CC3)nc(NC3(CO)CC3)c21` (stereo not shown) [Example 320], for which 1 µM produced 92% inhibition.
For `N#Cc1ccc(OC2CCN(c3nc4c(c(NC5CCOCC5)n3)[S+]([O-])CC4)CC2)cc1` (stereo not shown) [Example 321] the value was 93%.
As for `N#Cc1ccc(OC2CCN(c3nc4c(c(NC5(CO)CC5)n3)[S+]([O-])CC4)CC2)cc1` (stereo not shown) [Example 322], 1 µM produced 91% inhibition.
